Assay results as given in PMC8343194 (Acta Pharmaceutica Sinica. B, 2021).
Where two headings read alike, the source gives them in different places.

Tests used:
MDA435/LCC6 cells = test: Sulforhodamine B cytotoxicity assay, parental cells; format: cell-based; conditions: Homo sapiens
MDA435/LCC6 MDR1 cells = test: Sulforhodamine B cytotoxicity / MDR reversal assay, ABCB1-transfected cells; format: cell-based, human; conditions: for IC50: Homo sapiens
[1] = Pharmacokinetic study of paclitaxel with oral type I POPs; format: in vivo, Sprague–Dawley rats
[2] = Sprague-Dawley, rat, plasma, iv, 6 mg/kg
[3] = compound at 0.4 μmol/L, MDA435/LCC6 MDR1

Compound: CC(=O)O[C@H]1C(=O)[C@@]2(C)[C@H]([C@H](OC(=O)c3ccccc3)[C@]3(O)C[C@H](OC(=O)[C@H](O)[C@@H](NC(=O)c4ccccc4)c4ccccc4)C(C)=C1C3(C)C)[C@]1(OC(C)=O)CO[C@@H]1C[C@@H]2O [Paclitaxel, paclitaxel]
- IC50 (MDA435/LCC6 cells; MDA-435/LCC6, read-out: IC50 of paclitaxel): 1.36 ± 0.14 nM
- IC50 (MDA435/LCC6 MDR1 cells; read-out: IC50 of paclitaxel): 120 ± 9.44 nM
- behavior and body weight of rats ([1]; 6 consecutive days of paclitaxel alone or with type I POPs mixture): no abnormality in behavior and no significant weight losses
- brain accumulation of paclitaxel ([1]; 24 h after last dose, 6 consecutive days): no brain accumulation of paclitaxel
- half-life ([1]; Sprague-Dawley, rat, plasma, intravenous): 4.2 ± 0.3 h
- clearance [1, 2]: 91.7 mL/min/kg
- half-life [1, 2]: 3.2 ± 0.7 h
- Ctrough of paclitaxel after the last dose ([1]; paclitaxel iv 6 mg/kg/day ± type I POPs po 50 mg/kg/day for 6 consecutive days): 15.8 ± 6.6 nM

Compound: COc1cccc2c1C(=O)c1c(O)c3c(c(O)c1C2=O)C[C@@](O)(C(=O)CO)C[C@@H]3O[C@H]1C[C@H](N)[C@H](O)[C@H](C)O1 [Doxorubicin, doxorubicin]
- IC50 (MDA435/LCC6 cells; MDA-435/LCC6, read-out: IC50 of doxorubicin): 76 ± 8 nM
- IC50 (MDA435/LCC6 MDR1 cells; read-out: IC50 of doxorubicin): 695 ± 40 nM

Compound: C/C=C/C[C@@H](C)C(=O)[C@H]1C(=O)N[C@@H](C(C)C)C(=O)N(C)CC(=O)N(C)[C@@H](CC(C)C)C(=O)N[C@@H](C(C)C)C(=O)N(C)[C@@H](CC(C)C)C(=O)N[C@@H](C)C(=O)N[C@H](C)C(=O)N(C)[C@@H](CC(C)C)C(=O)N(C)[C@@H](CC(C)C)C(=O)N(C)[C@@H](C(C)C)C(=O)N1C [PSC833, valspodar]
- Fold change of doxorubicin IC50 (alone/combination) (MDA435/LCC6 MDR1 cells; [3]): 11
- Fold change of paclitaxel IC50 (alone/combination) (MDA435/LCC6 MDR1 cells; [3]): 59
